Here are results for one molecule from ChEMBL document CHEMBL1129789, “Dopamine D3 and D4 receptor antagonists: synthesis and structure--activity relationships of (S)-(+)-N-(1-Benzyl-3-pyrrolidinyl)-5-chloro-4- [(cyclopropylcarbonyl) amino]-2-methoxybenzamide (YM-43611) and related compounds” (J Med Chem, 1996).

For one assay, the target named is Adrenergic receptor beta (Rattus norvegicus, UniProt P18090+P10608+P26255). As to the kind of experiment: Compound was tested for the Binding affinity against rat cortical Beta adrenergic receptor by Radio ligand [3H]dihydroalprenolol binding assay. In kind it is protein assay.
Assay [1] deals with T1, Muscarinic acetylcholine receptor M1 (Rattus norvegicus, UniProt P08482).
T1 sequence (P08482 whole entry): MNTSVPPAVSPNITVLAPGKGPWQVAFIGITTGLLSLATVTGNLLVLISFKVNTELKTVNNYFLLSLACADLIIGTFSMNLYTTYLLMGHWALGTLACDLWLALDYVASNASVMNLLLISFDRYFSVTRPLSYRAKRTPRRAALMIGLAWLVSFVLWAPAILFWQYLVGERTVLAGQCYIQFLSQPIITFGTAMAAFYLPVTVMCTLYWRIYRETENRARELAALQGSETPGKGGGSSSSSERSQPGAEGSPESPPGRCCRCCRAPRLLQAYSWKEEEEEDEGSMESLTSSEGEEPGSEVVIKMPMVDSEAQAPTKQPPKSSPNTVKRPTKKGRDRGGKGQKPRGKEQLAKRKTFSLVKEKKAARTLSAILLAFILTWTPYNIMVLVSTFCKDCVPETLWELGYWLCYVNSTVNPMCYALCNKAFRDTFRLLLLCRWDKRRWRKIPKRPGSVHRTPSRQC
As to the kind of experiment: Compound was tested for the Binding affinity against rat cortical Muscarinic acetylcholine receptor M1 by Radio ligand [3H]pirenzepine binding assay.

In assay [2] the target is 5-hydroxytryptamine receptor 2A (Rattus norvegicus, UniProt P14842). As to the kind of experiment: biochemical.
Chain of 5-hydroxytryptamine receptor 2A (P14842 whole entry): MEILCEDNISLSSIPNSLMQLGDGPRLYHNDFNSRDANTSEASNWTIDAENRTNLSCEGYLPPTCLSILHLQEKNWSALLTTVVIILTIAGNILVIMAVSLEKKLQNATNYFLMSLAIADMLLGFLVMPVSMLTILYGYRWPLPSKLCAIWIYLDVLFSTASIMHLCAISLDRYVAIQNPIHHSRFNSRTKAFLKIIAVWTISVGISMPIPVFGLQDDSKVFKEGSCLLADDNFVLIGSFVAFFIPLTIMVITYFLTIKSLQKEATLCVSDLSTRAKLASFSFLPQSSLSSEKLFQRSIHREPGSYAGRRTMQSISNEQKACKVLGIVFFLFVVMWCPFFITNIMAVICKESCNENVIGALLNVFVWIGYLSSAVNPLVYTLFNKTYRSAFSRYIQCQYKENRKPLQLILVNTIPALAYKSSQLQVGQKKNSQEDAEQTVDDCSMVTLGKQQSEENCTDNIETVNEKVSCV
Assay [3] concerns the target T2, Adrenergic receptor alpha-2 (Rattus norvegicus, UniProt P22086+P19328+P22909).
T2 sequence (P22086 whole entry): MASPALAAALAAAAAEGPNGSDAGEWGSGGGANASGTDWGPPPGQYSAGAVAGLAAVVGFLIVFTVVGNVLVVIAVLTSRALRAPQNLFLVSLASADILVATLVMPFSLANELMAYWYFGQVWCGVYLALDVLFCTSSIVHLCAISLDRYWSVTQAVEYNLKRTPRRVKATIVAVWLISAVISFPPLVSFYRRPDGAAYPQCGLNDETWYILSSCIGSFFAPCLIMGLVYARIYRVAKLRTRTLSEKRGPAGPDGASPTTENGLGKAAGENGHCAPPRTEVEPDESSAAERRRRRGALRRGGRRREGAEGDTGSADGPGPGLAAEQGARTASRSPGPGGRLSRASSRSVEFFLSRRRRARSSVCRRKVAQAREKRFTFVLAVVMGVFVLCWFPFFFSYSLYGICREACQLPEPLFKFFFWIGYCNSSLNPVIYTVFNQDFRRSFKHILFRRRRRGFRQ
T2 sequence (P19328 whole entry): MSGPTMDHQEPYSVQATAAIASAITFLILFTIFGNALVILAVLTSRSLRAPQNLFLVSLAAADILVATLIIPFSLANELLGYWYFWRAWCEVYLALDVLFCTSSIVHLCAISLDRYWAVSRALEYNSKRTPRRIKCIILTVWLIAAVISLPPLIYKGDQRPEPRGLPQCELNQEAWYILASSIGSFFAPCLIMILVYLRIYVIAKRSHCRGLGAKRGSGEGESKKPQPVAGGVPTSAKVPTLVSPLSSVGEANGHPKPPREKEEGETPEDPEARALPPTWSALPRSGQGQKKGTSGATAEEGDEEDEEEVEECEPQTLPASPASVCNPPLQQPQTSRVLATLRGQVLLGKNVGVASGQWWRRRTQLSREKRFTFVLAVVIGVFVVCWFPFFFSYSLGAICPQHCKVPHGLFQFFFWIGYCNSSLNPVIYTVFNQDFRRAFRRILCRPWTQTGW
T2 sequence (P22909 whole entry): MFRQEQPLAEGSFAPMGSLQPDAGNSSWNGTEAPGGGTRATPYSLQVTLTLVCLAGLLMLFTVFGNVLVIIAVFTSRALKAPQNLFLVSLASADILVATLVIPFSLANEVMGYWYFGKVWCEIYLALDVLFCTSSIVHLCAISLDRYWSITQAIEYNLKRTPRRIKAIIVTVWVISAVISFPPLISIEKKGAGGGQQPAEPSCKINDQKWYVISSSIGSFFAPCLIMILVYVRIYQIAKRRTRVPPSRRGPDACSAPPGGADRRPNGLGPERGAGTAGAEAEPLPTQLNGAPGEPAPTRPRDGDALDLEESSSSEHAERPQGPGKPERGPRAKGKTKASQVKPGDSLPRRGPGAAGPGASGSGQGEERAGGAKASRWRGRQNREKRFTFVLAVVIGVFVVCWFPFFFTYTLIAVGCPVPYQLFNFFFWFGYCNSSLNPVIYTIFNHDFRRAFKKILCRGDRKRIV
As to the kind of experiment: Compound was tested for the Binding affinity against rat cortical Alpha-2 adrenergic receptor by Radio ligand ([3H]-Rx-821002) binding assay. In kind it is protein assay.

In assay [4] the target is T3, 5-hydroxytryptamine receptor 3A (Mus musculus, UniProt P23979).
T3 sequence (P23979 whole entry): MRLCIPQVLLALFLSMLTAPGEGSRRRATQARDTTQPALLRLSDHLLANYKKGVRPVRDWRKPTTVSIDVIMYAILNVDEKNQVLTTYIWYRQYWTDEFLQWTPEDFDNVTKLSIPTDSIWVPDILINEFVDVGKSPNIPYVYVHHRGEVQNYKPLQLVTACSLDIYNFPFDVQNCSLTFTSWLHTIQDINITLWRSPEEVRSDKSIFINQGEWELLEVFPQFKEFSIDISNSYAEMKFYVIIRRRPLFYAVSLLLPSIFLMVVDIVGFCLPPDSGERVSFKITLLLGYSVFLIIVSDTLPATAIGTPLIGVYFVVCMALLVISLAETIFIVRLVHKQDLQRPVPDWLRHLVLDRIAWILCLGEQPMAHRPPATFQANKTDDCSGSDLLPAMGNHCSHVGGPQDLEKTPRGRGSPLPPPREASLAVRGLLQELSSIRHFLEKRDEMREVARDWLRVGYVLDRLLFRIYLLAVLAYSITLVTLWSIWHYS

The next assay addresses Histamine H1 receptor (Rattus norvegicus, UniProt P31390). As to the kind of experiment: Compound was tested for the Binding affinity against rat cortical H1 receptor by Radio ligand [3H]pyrilamine binding assay.
Another assay has as its target T4, D(4) dopamine receptor (Homo sapiens, UniProt P21917).
T4 sequence (P21917 whole entry): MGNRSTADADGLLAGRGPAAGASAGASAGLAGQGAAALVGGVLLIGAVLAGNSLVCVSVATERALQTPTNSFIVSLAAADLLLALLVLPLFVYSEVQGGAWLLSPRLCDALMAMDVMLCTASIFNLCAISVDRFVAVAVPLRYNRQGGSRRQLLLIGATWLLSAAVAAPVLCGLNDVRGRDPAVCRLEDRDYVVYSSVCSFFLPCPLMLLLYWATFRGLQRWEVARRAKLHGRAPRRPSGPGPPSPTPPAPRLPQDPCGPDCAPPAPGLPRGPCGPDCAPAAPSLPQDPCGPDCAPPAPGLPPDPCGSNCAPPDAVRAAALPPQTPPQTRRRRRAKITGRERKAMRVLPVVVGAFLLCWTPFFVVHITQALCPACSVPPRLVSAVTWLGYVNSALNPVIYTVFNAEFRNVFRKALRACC
As to the kind of experiment: biochemical.

Chain of Histamine H1 receptor (P31390 whole entry): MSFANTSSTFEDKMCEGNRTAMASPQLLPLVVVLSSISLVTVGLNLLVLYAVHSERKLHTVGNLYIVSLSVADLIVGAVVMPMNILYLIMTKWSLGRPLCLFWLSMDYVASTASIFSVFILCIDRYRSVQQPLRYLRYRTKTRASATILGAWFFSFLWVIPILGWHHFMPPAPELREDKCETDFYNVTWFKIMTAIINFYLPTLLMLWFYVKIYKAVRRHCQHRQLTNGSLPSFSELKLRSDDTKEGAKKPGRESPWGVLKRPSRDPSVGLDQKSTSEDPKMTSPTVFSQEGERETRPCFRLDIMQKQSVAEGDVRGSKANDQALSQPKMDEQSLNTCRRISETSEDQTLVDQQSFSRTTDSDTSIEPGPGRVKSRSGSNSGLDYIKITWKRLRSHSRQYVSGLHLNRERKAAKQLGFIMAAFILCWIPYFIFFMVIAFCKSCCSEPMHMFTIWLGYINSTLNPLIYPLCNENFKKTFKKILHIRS

With `COc1cc(NC(=O)C2CC2)c(Cl)cc1C(=O)N[C@H]1CCN(Cc2ccccc2)C1`, the Ki (usually a measure of affinity in units of concentration, obtained from inhibition or displacement) is greater than 10 µM on Adrenergic receptor beta; 5.4 µM in assay [1]; greater than 10 µM in assay [2]; 4.3 µM in assay [3]; 4 µM in assay [4]; greater than 10 µM at Histamine H1 receptor. On D(4) dopamine receptor, this molecule came in with a Ki of 0.0021 µM.
